pIC50: −log10 of the molar value.

The target in this experiment is T1, active p38 alpha enzyme (Upstate Biotechnology) (Homo sapiens, UniProt Q16539).
T1 construct: purchased Upstate Biotechnology
T1 sequence (Q16539 whole entry): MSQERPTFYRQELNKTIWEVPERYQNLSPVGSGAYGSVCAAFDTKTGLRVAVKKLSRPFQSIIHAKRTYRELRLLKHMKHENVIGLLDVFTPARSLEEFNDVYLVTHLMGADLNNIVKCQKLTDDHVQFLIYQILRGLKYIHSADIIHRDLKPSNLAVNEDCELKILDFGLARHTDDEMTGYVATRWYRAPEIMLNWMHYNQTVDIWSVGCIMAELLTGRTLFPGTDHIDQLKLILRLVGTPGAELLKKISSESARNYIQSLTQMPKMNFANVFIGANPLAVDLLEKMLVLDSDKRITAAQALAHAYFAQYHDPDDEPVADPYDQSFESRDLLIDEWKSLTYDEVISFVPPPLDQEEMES
In words: p38α biochemical assay (ATP turnover, luminescent detection, Cambrex PKlight). The settings on record: p38α biochemical assay, Table 1 Biological Activity. An outline of the steps:
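Active human p38α was incubated with full-length MapkapK2 protein as substrate and 1.4 uM ATP (final) for 2 hours at 30C. Buffer: 200 mM Tris, 100 mM MgCl2, 1.5 mM EGTA, 4 mM CaCl2, 20 mM MOPS, 1 mM EDTA, 1% glycerol, 0.1% β-mercaptoethanol, 1 mg/ml BSA. Total ATP turnover read by luminescence.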
Turning to `CC(C)Cc1ccc(C(C)C(=O)NCc2nc(-c3ccc(F)cc3)c(-c3nc(C(=O)NC(C)C)cs3)o2)cc1` (stereo not drawn) [Example 280], the pIC50 was below 6.00.
As for `CC(C)NC(=O)c1csc(-c2oc(CNC(=O)c3cc(Cl)c(O)c(Cl)c3)nc2-c2ccc(F)cc2)n1` [Example 281], the pIC50 is at least 6.00.
`CC(C)NC(=O)c1csc(-c2oc(CNC(=O)c3c(F)c(F)c(F)c(F)c3F)nc2-c2ccc(F)cc2)n1` [Example 282] gave a pIC50 of at least 6.00.
Regarding `COc1cc(OC)c(C(=O)NCc2nc(-c3ccc(F)cc3)c(-c3nc(C(=O)NC(C)C)cs3)o2)c(OC)c1` [Example 283], the pIC50 was at least 6.00.
The molecule `COc1cc(OC)c(C(=O)NCc2nc(-c3ccc(F)cc3)c(-c3nc(C(=O)NC(C)C)cs3)o2)cc1OC` [Example 284] gave a pIC50 below 6.00.
Next, `COc1cc(C(=O)NCc2nc(-c3ccc(F)cc3)c(-c3nc(C(=O)NC(C)C)cs3)o2)cc(OC)c1OC` [Example 285]: below 6.00; `COc1ccc(C(=O)NCc2nc(-c3ccc(F)cc3)c(-c3nc(C(=O)NC(C)C)cs3)o2)c(OC)c1OC` [Example 286]: below 6.00.
`CC(C)NC(=O)c1csc(-c2oc(CNC(=O)c3ccccc3Cc3ccccc3)nc2-c2ccc(F)cc2)n1` [Example 287] showed a pIC50 below 6.00.
Molecule `CC(C)NC(=O)c1csc(-c2oc(CNC(=O)c3cccc(Oc4ccccc4)c3)nc2-c2ccc(F)cc2)n1` [Example 288] showed a pIC50 below 6.00.
With `CC(C)NC(=O)c1csc(-c2oc(CNC(=O)c3ccccc3Oc3ccccc3)nc2-c2ccc(F)cc2)n1` [Example 289] the figure was below 6.00; with `CC(C)NC(=O)c1csc(-c2oc(CNC(=O)c3ccc(Oc4ccccc4)cc3)nc2-c2ccc(F)cc2)n1` [Example 290], below 6.00; with `CC(C)NC(=O)c1csc(-c2oc(CNC(=O)c3ccc(-c4ccc(O)cc4)cc3)nc2-c2ccc(F)cc2)n1` [Example 291], at least 6.00.
The molecule `Cc1cc(C(=O)NCc2nc(-c3ccc(F)cc3)c(-c3nc(C(=O)NC(C)C)cs3)o2)ccc1Br` [Example 292] showed a pIC50 below 6.00.
In the case of `Cc1ccc(C(=O)NCc2nc(-c3ccc(F)cc3)c(-c3nc(C(=O)NC(C)C)cs3)o2)cc1Br` [Example 293], the pIC50 is below 6.00.
With `CC(C)NC(=O)c1csc(-c2oc(CNC(=O)Cc3ccc(Br)cc3)nc2-c2ccc(F)cc2)n1` [Example 294] the figure was below 6.00; with `CC(C)NC(=O)c1csc(-c2oc(CNC(=O)C3CCCN3C(=O)OC(C)(C)C)nc2-c2ccc(F)cc2)n1` (stereo not drawn) [Example 295], below 6.00.
Next, `CC(C)NC(=O)c1csc(-c2oc(CNC(=O)/C=C/c3ccccc3C(F)(F)F)nc2-c2ccc(F)cc2)n1` [Example 296]: below 6.00; `CCOc1ccc2ccccc2c1C(=O)NCc1nc(-c2ccc(F)cc2)c(-c2nc(C(=O)NC(C)C)cs2)o1` [Example 297]: below 6.00; `CC(C)NC(=O)c1csc(-c2oc(CNC(=O)C(NC(=O)OC(C)(C)C)C(C)C)nc2-c2ccc(F)cc2)n1` (stereo not drawn) [Example 298]: below 6.00.
The molecule `CC(C)NC(=O)c1csc(-c2oc(CNC(=O)C(NC(=O)OC(C)(C)C)C(C)C)nc2-c2ccc(F)cc2)n1` (stereo not drawn) [Example 299] showed a pIC50 below 6.00.
Molecule `CC(C)NC(=O)c1csc(-c2oc(CNC(=O)CCc3cccc(C(F)(F)F)c3)nc2-c2ccc(F)cc2)n1` [Example 300] had a pIC50 of at least 6.00.
In turn, `CC1=NN(c2ccc(C(=O)NCc3nc(-c4ccc(F)cc4)c(-c4nc(C(=O)NC(C)C)cs4)o3)cc2)C(=O)C1` [Example 301] had a pIC50 of at least 6.00.
In turn, `Cc1nc(Br)sc1C(=O)NCc1nc(-c2ccc(F)cc2)c(-c2nc(C(=O)NC(C)C)cs2)o1` [Example 302] gave a pIC50 of at least 6.00.
On to `CC(C)NC(=O)c1csc(-c2oc(CNC(=O)c3c4ccccc4cc4ccccc34)nc2-c2ccc(F)cc2)n1` [Example 303], for which the pIC50 was at least 6.00.
In turn, `CC(C)NC(=O)c1csc(-c2oc(CNC(=O)c3cc(C(C)C)cc(C(C)C)c3O)nc2-c2ccc(F)cc2)n1` [Example 304] gave a pIC50 of at least 6.00.
With `CC(=O)NC(Cc1ccc(O)cc1)C(=O)NCc1nc(-c2ccc(F)cc2)c(-c2nc(C(=O)NC(C)C)cs2)o1` (stereo not drawn) [Example 305] the figure was at least 6.00; with `CC(C)NC(=O)c1csc(-c2oc(CNC(=O)c3c(Cl)cc(Cl)cc3Cl)nc2-c2ccc(F)cc2)n1` [Example 306], at least 6.00.
As to `COc1cc(C(=O)NCc2nc(-c3ccc(F)cc3)c(-c3nc(C(=O)NC(C)C)cs3)o2)c([N+](=O)[O-])cc1OC` [Example 307], the pIC50 was at least 6.00.
Next, `CC(C)NC(=O)c1csc(-c2oc(CNC(=O)c3ccc(OCc4ccccc4)cc3)nc2-c2ccc(F)cc2)n1` [Example 308]: at least 6.00; `CC(C)NC(=O)c1csc(-c2oc(CNC(=O)CCc3ccccc3Br)nc2-c2ccc(F)cc2)n1` [Example 309]: below 6.00; `CC(C)NC(=O)c1csc(-c2oc(CNC(=O)CCc3cccc(Br)c3)nc2-c2ccc(F)cc2)n1` [Example 310]: below 6.00.
As for `CC(C)NC(=O)c1csc(-c2oc(CNC(=O)C3CCCCN3C(=O)OC(C)(C)C)nc2-c2ccc(F)cc2)n1` (stereo not drawn) [Example 311], the pIC50 was below 6.00.
`CC(C)NC(=O)c1csc(-c2oc(CNC(=O)c3ccc(Oc4cccc(O)c4)cc3)nc2-c2ccc(F)cc2)n1` [Example 312] gave a pIC50 of at least 6.00.
For `COc1ccc2cc(C(C)C(=O)NCc3nc(-c4ccc(F)cc4)c(-c4nc(C(=O)NC(C)C)cs4)o3)ccc2c1` (stereo not drawn) [Example 313], the pIC50 is at least 6.00.
The molecule `CC(C)NC(=O)c1csc(-c2oc(CNC(=O)C3CN(C(=O)OC(C)(C)C)CCN3)nc2-c2ccc(F)cc2)n1` (stereo not drawn) [Example 314] gave a pIC50 of at least 6.00.
With `CC(C)NC(=O)c1csc(-c2oc(CNC(=O)C3CN(C(=O)OC(C)(C)C)CCN3)nc2-c2ccc(F)cc2)n1` (stereo not drawn) [Example 315] the figure was at least 6.00; with `COc1ccc(Br)c(C(=O)NCc2nc(-c3ccc(F)cc3)c(-c3nc(C(=O)NC(C)C)cs3)o2)c1` [Example 316], at least 6.00; with `CC(C)NC(=O)c1csc(-c2oc(CNC(=O)C3CC(O)CN3C(=O)OC(C)(C)C)nc2-c2ccc(F)cc2)n1` (stereo not drawn) [Example 317], below 6.00.
The molecule `CC(C)NC(=O)c1csc(-c2oc(CNC(=O)C(C(C)C)N(C)C(=O)OC(C)(C)C)nc2-c2ccc(F)cc2)n1` (stereo not drawn) [Example 318] had a pIC50 below 6.00.
`CC(C)NC(=O)c1csc(-c2oc(CNC(=O)c3ccc(C(F)(F)F)cc3[N+](=O)[O-])nc2-c2ccc(F)cc2)n1` [Example 319] showed a negative-log IC50 (pIC50) of at least 6.00.
Turning to `CC(C)NC(=O)c1csc(-c2oc(CNC(=O)c3cc(Br)ccc3Cl)nc2-c2ccc(F)cc2)n1` [Example 320], the pIC50 was at least 6.00.
With `CC(C)NC(=O)c1csc(-c2oc(CNC(=O)c3ccc(Cl)c(Br)c3)nc2-c2ccc(F)cc2)n1` [Example 321] the figure was below 6.00; with `CC(C)NC(=O)c1csc(-c2oc(CNC(=O)c3ccccc3C(=O)c3ccc(O)cc3)nc2-c2ccc(F)cc2)n1` [Example 322], at least 6.00; with `CC(C)NC(=O)c1csc(-c2oc(CNC(=O)c3ccccc3C(=O)c3ccc(F)cc3)nc2-c2ccc(F)cc2)n1` [Example 323], below 6.00.
`CC(C)NC(=O)c1csc(-c2oc(CNC(=O)C(C)c3ccc(-c4ccccc4)c(F)c3)nc2-c2ccc(F)cc2)n1` (stereo not drawn) [Example 324] showed a pIC50 below 6.00.

These data come from US20060252807A1, “Novel ortho-terphenyl inhibitors of p38 kinase and methods of treating inflammatory disorders” (Kalypsys, Inc., priority 2005, published 2006).
